Reference: KR20180046249A, “리소스퍼믹 액시드를 포함하는 구강질환 예방 또는 치료용 조성물” (주식회사 엘지생활건강, priority 2016, dated 2018)

Key:
Type in all cases: cell-based
Streptococcus mutans = test: Paper disc antibacterial test, Streptococcus mutans; conditions: 24-48 h incubation, untreated: no inhibition
Porphyromonas gingivalis = test: Paper disc antibacterial test, Porphyromonas gingivalis; conditions: anaerobic, 24-48 h incubation, untreated: no inhibition
PGE2 = PGE2 inhibition in LPS-stimulated macrophages (ELISA); conditions: LPS 1 ㎍/ml

Which “growth inhibition zone diameter” value (Streptococcus mutans; 10 mg/disc, 8 mm disc, 37, BHI) does the source give for `O=C(/C=C/c1ccc(O)c2c1[C@H](C(=O)O)[C@@H](c1ccc(O)c(O)c1)O2)O[C@H](Cc1ccc(O)c(O)c1)C(=O)O` [리소스퍼믹 액시드, lithospermic acid] here?
Its value is ~10.0 mm.

What about the zone of inhibition at 10 mg/disc (Streptococcus mutans; Streptococcus mutans, 8 mm disc, 37, BHI, read-out: growth inhibition zone diameter) of the same compound?
Its zone of inhibition at 10 mg/disc is 10.7 mm.

What about the “growth inhibition zone diameter” value (Porphyromonas gingivalis; 10 mg/disc, 8 mm disc, 37, TSA Hemin Menadione medium) of the same compound?
The value was ~10.0 mm.

And the zone of inhibition at 10 mg/disc (Porphyromonas gingivalis; Porphyromonas gingivalis, 8 mm disc, 37, TSA Hemin Menadione medium, read-out: growth inhibition zone diameter)?
The zone of inhibition at 10 mg/disc was 9.8 mm.

What about the “PGE2 inhibition, concentration dependence (in words)” value (PGE2) of the same compound?
The value was “농도 의존적으로 PGE2를 억제하는 효과”.

And the inhibition at 2 ppm (PGE2; Macrophage, 2ppm, 24 h, compared with LPS-only group)?
Its inhibition at 2 ppm is ~50%.

And the inhibition at 20 ppm (PGE2; Macrophage, 20ppm, 24 h, compared with LPS-only group)?
Its inhibition at 20 ppm is ~70%.
